One data set concerns HDAC. As to conditions: cited from earlier work.
The next data set concerns tumors. The conditions noted are these: mouse, in vivo; cited from earlier work.
The subject of data set [1] is MIC-A/B. In words: MIC-A/B expression by flow cytometry. It counts as cell-based, human. As to conditions: Depsipeptide 25 ng/ml or Velcade 10 nM, 6-40 hours. In general terms: In flow cytometry, cells or beads pass a laser one at a time.
The subject of a further data set is MHC class I. In words: MHC class I expression by flow cytometry. It counts as cell-based, human and murine. As to conditions: Depsipeptide 25 ng/ml or Velcade 10 nM, 6-40 hours. The method, then: (§1) Level of apoptosis was evaluated by Annexin-V and 7-AAD staining (upper left chart). Expression of MHC class I was evaluated by flow cytometry by HLA-ABC for human RCC and H-2Dd/Kd for murine RCC (lower left chart). […] Cells were labeled with ^3H thymidine for analysis of proliferation (upper right chart).

Another data set relates to RENCA tumor cells. In words: NK cell susceptibility assay of pre-sensitized RENCA tumor cells. The class given is cell-based, murine. The conditions noted are these: for NK cell susceptibility of RENCA (FIG. 8): 14 hours, 10 nM Velcade or 25 ng/ml Depsipeptide, autologous Balb/c NK cells, 4 hour assay; for susceptibility of RENCA tumor cells to NK cell mediated lysis (FIG. 7): pretreated 40 hours, Depsipeptide 25 ng/ml or Velcade 10 nM, NK cells from B10.d2 mouse. The method, then: Thereafter, the tumor cells were tested for NK cell susceptibility in a standard cytotoxicity assay. NK cells were purified from splenocytes from a B 10.d2 mouse by negative magnetic bead depletion of T cells, B cells, monocytes and granulocytes. NK cell purity was evaluated by DX5 and CD3 staining by flow cytometry. Purity of NK cells was always between 90-100%.
Cells were thereafter labeled with ^51Cr for 1 hour and tested for susceptibility to NK cell mediated lysis in a standard 4 hour assay. Murine autologous Balb/c NK cells tested against untreated (squares), Velcade (circles) or Depsipeptide (triangles) treated RENCA cell lines (Balb/c in origin).

For data set [2], the system named is human RCC cell lines (JOHW, PORJC, SAUJ and STAR). The class given is cell-based.
Method: (§2) Cells were then plated in a 96-well plate at 4,000 cell/well. Recombinant TRAIL [75-300 ng/ml] or recombinant Fas-ligand [12.5-100 ng/ml] was added to the cells and supernatant was harvested after 16 hours incubation. The level of lysis by TRAIL and Fas-ligand were calculated based on spontaneous and maximum ^51Cr release.
The test system of data set [3] is MIC-A/B. The conditions noted are these: cited from earlier work.
Data set [4] has as its system human RCC cell lines (JOHW, PORJC, SAUJ and STAR). The class given is cell-based. This is another data set of the same source.
Method: as §2
Another data set has as its system human and murine RCC. The data set can be described thus: 3H thymidine proliferation. It counts as cell-based. The conditions noted are these: various concentrations, 72 hours. The method, then:
as §1

The subject of data set [5] is human renal cell carcinoma (RCC) cell lines JOHW, SAUJ, STAR. In words: NK cell susceptibility assay of pre-sensitized human RCC cell lines. The conditions noted are these: for autologous NK cell susceptibility of human RCC SAUJ or STAR (FIG. 11): 24 hours, 25 ng/ml Depsipeptide or 10 nM Velcade; for allogeneic NK cell susceptibility of human RCC (FIG. 9) / autologous NK cell susceptibility of human RCC (FIG. 10): JOHW, 10 nM Velcade or 25 ng/ml Depsipeptide, 40 hours, 4 hour assay. The class given is cell-based. The method, then:
Cells were thereafter labeled with ^51Cr for 1 hour and tested for susceptibility to allogeneic NK cell mediated lysis in a standard 4 hour assay.
Cells were thereafter labeled with ^51Cr for 1 hour and tested for susceptibility to autologous NK cell mediated lysis in a standard 4 hour assay.
Thereafter, the tumor cells were tested for NK cell susceptibility in a standard cytotoxicity assay. Autologous NK cells were purified from peripheral blood by negative magnetic bead depletion of T cells, B cells, monocytes and granulocytes. NK cell purity was evaluated by CD56 and CD3 staining by flow cytometry. Purity of NK cells was always between 90-100%.

Data set [6] deals with RCC cell lines (JOHW, SAUJ, STAR, RENCA). In words: apoptosis by Annexin-V and 7-AAD staining. It counts as cell-based, human and murine. The conditions noted are these: Depsipeptide 25 ng/ml or Velcade 10 nM, 6-40 hours. The method, then:
as §1

The subject of another data set is neoplastic cells. The conditions noted are these: by reducing levels of c-FLIP; cited from earlier work.
For data set [7] the following is noted: while retaining graft-versus-tumor effects; cited from earlier work.

For `C/C=C1\NC(=O)[C@H]2CSSCC/C=C/[C@H](CC(=O)N[C@H](C(C)C)C(=O)N2)OC(=O)[C@H](C(C)C)NC1=O` [FR901228], the “concentrations at which HDAC activity is inhibited” value in the data set with HDAC is on record as “micromolar concentrations”.

Consider `C/C=C1\NC(=O)[C@H]2CSSCC/C=C/[C@H](CC(=O)N[C@H](C(C)C)C(=O)N2)OC(=O)[C@H](C(C)C)NC1=O` [Depsipeptide], for which the “anti-tumor effects: cell growth and formation of tumors in mice models” value in the data set with tumors was “anti-tumor effects”. For the same compound, in the data set with MIC-A/B [1], the “MIC-A/B expression of human RCC (FIG. 15)” value is “no differences”. For the same compound, the “MHC Class I expression of RCC cell lines (FIG. 15)” value in the data set with MHC class I is listed as “no differences”. Besides, in the data set on RENCA tumor cells, the “NK cell susceptibility of RENCA (FIG. 8)” value is “enhanced NK cell susceptibility” and the “susceptibility of RENCA tumor cells to NK cell mediated lysis (FIG. 7)” value is reported as “more susceptible”. Also, the “cell lysis of presensitized RCC cells by Fas ligand (FIG. 14)” value in data set [2] was “Increased cell lysis”. For the same compound, the MIC-A/B upon treatment result in the data set with MIC-A/B [3] was “induction”. In addition, the “cell lysis of presensitized RCC cells by TRAIL (FIG. 13)” value in data set [4] is “Increased cell lysis”. In addition, the “proliferation of RCC cell lines (FIG. 15)” value with human and murine RCC was “no differences”. For the same compound, in data set [5], the “autologous NK cell susceptibility of human RCC SAUJ or STAR (FIG. 11)” value is given as “enhanced autologous NK cell susceptibility”, the “allogeneic NK cell susceptibility of human RCC (FIG. 9)” value was “enhanced allogeneic NK cell susceptibility” and the “autologous NK cell susceptibility of human RCC (FIG. 10)” value is recorded as “enhanced autologous NK cell susceptibility”. Further, in data set [6], the “viability (apoptosis) of RCC cell lines (FIG. 15)” value was “no differences”.

As to `CC(C)C[C@H](NC(=O)[C@H](Cc1ccccc1)NC(=O)c1cnccn1)B(O)O` [PS-341], the “sensitization of neoplastic cells to TRAIL-mediated apoptosis” value with neoplastic cells is on record as “sensitizes”.

Consider `CC(C)C[C@H](NC(=O)[C@H](Cc1ccccc1)NC(=O)c1cnccn1)B(O)O` [Velcade], for which, in the data set on MHC class I, the “MHC Class I expression of RCC cell lines (FIG. 15)” value is recorded as “no differences”. Further, the acute graft-versus-host disease result in [7] is on record as “inhibits”. Besides, in the data set on RENCA tumor cells, the “NK cell susceptibility of RENCA (FIG. 8)” value is “enhanced NK cell susceptibility” and the “susceptibility of RENCA tumor cells to NK cell mediated lysis (FIG. 7)” value is “more susceptible”. Moreover, the “proliferation of RCC cell lines (FIG. 15)” value in the data set on human and murine RCC is reported as “no differences”. Further, in [5], the “autologous NK cell susceptibility of human RCC SAUJ or STAR (FIG. 11)” value is “enhanced autologous NK cell susceptibility”, the “allogeneic NK cell susceptibility of human RCC (FIG. 9)” value is “enhanced allogeneic NK cell susceptibility” and the “autologous NK cell susceptibility of human RCC (FIG. 10)” value was “enhanced autologous NK cell susceptibility”. The “viability (apoptosis) of RCC cell lines (FIG. 15)” value in data set [6] is on record as “no differences”.

The record behind these values is patent US20140086890A1, “COMPOSITIONS AND METHODS FOR TREATING HYPERPROLIFERATIVE DISORDERS” (priority 2004, published 2014).
